ChEMBL document CHEMBL2040846, “A new 9,11-secosterol from the soft coral Sinularia granosa” (Bioorg Med Chem Lett, 2012)
In brackets after ≈: the same amount, converted by molar mass.

Legend:
[1] = tested on: RAW264.7; assay: Toxicity against mouse RAW264.7 cells; assay type: cell-based
[2] = tested on: MCF7; assay: Antiproliferative activity against human MCF7 cells after 6 days by MTT assay; assay type: functional; conditions: MCF7, 144 h, read-out: ED50 (the source's name)
[3] = tested on: Daoy; assay: Antiproliferative activity against human DaOY cells after 6 days by MTT assay; assay type: functional; conditions: 144 h, read-out: ED50 (the source's name)
[4] = tested on: HeLa; assay: Antiproliferative activity against human HeLa cells after 6 days by MTT assay; assay type: functional; conditions: 144 h, read-out: ED50 (the source's name)
[5] = tested on: RAW264.7; assay: Effect on beta-actin protein expression in LPS-induced mouse RAW264.7 cells at 10 uM incubated for 10 mins prior to LPS-challenge measured after 16 hrs by Western blot analysis relative to control; assay type: ADME, cell-based; conditions: raw264.7, 16 h
[6] = tested on: RAW264.7; assay: Antiinflammatory activity in mouse RAW264.7 cells assessed as inhibition of LPS-induced iNOS expression at 10 uM incubated for 10 mins prior to LPS-challenge measured after 16 hrs by Western blot analysis relative to control; assay type: functional
[7] = tested on: HEp-2; assay: Antiproliferative activity against human Hep2 cells after 6 days by MTT assay; assay type: functional; conditions: HEp-2, 144 h, read-out: ED50 (the source's name)
[8] = tested on: RAW264.7; assay: Antiinflammatory activity in mouse RAW264.7 cells assessed as inhibition of LPS-induced COX2 expression at 10 uM incubated for 10 mins prior to LPS-challenge measured after 16 hrs by Western blot analysis relative to control; assay type: functional

| EC50 [2] [µg/mL] | EC50 [4] [µg/mL] | Activity [5] [%] | SMILES | Activity [1] | EC50 [3] [µg/mL] | inhibition at 10 µM [6] [%] | EC50 [7] [µg/mL] | inhibition at 10 µM [8] [%] |
| --- | --- | --- | --- | --- | --- | --- | --- | --- |
| 4.99 (≈ 11.2 µM) | 8.21 (≈ 18.4 µM) | 102.3 | C=C(CC[C@@H](C)[C@H]1CC[C@@H]([C@H]2C[C@@H]3O[C@@]34C[C@@H](O)CC[C@]4(C)C2=O)[C@]1(C)CCO)C(C)C | Non-toxic | 5.53 (≈ 12.4 µM) | 66.1 | 6.21 (≈ 13.9 µM) | 42.7 |
| 9.98 (≈ 22.3 µM) | > 40 | 108.9 | C=C(CC[C@@H](C)[C@H]1CC[C@@H]([C@@H]2C[C@H]3O[C@]34C[C@@H](O)CC[C@]4(C)C2=O)[C@]1(C)CCO)C(C)C | Non-toxic | 7.07 (≈ 15.8 µM) | 19.4 | > 40 |  |
| 0.09 (≈ 0.269 µM) | 0.13 (≈ 0.389 µM) |  | CO[C@@]12[C@H](COC(N)=O)C3=C(C(=O)C(C)=C(N)C3=O)N1C[C@@H]1N[C@@H]12 [MITOMYCIN] |  | 0.08 (≈ 0.239 µM) |  | 0.12 (≈ 0.359 µM) |  |
